Values after ≈ are worked out from the molar mass of the structure shown.
Assays:
[1] = test system: Escherichia coli; experiment: in vitro antibacterial evaluation, MIC by broth dilution; format: cell-based; settings: 18 hours at 35° C.
[2] = test system: Staphylococcus aureus-SMITH (GC 4543); experiment: acute lethal infection in mice; format: in vivo; settings: acute lethal infection, female CD-1 mice, intraperitoneal challenge, intravenous 30 min. after infection, 7 day survival
Summary of the method: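 Female CD-1 mice (20±2 g) got an intraperitoneal bacterial challenge lethal to untreated controls within 24–48 hr. Compound was dosed intravenously 30 min after infection, five mice per dose. ED50 was calculated from 7-day survival pooled across 3 tests.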

[3] = clinical pathology (serum clinical chemistry) in mice; format: in vivo; settings: CD-1 mice, 20 mg/kg intravenously daily for 9 days, sera day 10
Experimental: 20-day-old CD-1 mice were divided into a vehicle control group (5 mice) and a treatment group (5 mice). Samples of glycopeptide antibiotics were administered at 20 mg/kg intravenously daily for 9 days.

[4] = test system: Enterococcus sp.; experiment: in vitro antibacterial evaluation, MIC by broth dilution; format: cell-based; settings: broth dilution, 18 hours at 35° C.
Summary of the method: (§1)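 Broth dilution per NCCLS standard M7-A2 in Muller-Hinton II […], with an inoculum of 5×10^5 CFU/mL and antibiotic spanning 64-0.06 μg/mL. The MIC is the lowest concentration that inhibits growth of the organism.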

[5] = test system: Streptococcus sp.; experiment: as above; format: cell-based; settings: broth dilution, 18 hours at 35° C.
Summary of the method: as §1

[6] = test system: Staphylococcus sp.; experiment: as above; format: cell-based; settings: broth dilution, 18 hours at 35° C.
Summary of the method: as §1

[7] = anatomic pathology (histopathology of heart and kidney) in mice; format: in vivo; settings: CD-1 mice, 20 mg/kg intravenously daily for 9 days, necropsy day 10, microscopic histopathology
Experimental: Samples of tissues from necropsied mice were formalin-fixed, paraffin-embedded, sectioned, stained with hematoxylin and eosin, and examined microscopically. Histopathologic findings were recorded. These findings were subjectively graded on a scale corresponding to slight, mild, moderate, marked and severe as compared to untreated controls.

## COc1ccc2cc(COCC3OC(OC4C(CO)OC(Oc5ccc(CC6NC(=O)C(C(C)c7ccccc7)NC(=O)CNC(=O)C(CO)NC(=O)C(CC7CNC(=N)N7C7OC(CO)C(O)C(O)C7O)NC(=O)C(CC7CNC(=N)N7)NC6=O)cc5)C(O)C4O)C(O)C(O)C3O)ccc2c1 (stereo not drawn) [Example 245, Cyclo[3-(2-iminoimidazolidin-4-yl)alanyl-3-(3-hexopyranosyl-2-iminoimidazolidin-4-yl)-alanylserylglycyl-β-methylphenylalanyl-O-[4-O-[6-O-[(6-methoxy-2-naphthyl)methyl]-hexopyranosyl]hexopyranosyl]tyrosyl]]
[1]
  MIC Escherichia coli (ATCC 25922): 64 mg/L (≈ 44.6 µM)
  MIC Escherichia coli (GC 4559): 32 mg/L (≈ 22.3 µM)
  MIC Escherichia coli (GC 4560): 4 mg/L (≈ 2.79 µM)
[2]
  median effective dose (ED50), Staphylococcus aureus-SMITH (GC 4543): 4 mg/kg
[3]
  Clinical Chemistry (Day 10) % of Control, BUN: +160%
  Clinical Chemistry (Day 10) % of Control, Creatinine: +138%
[4]
  MIC Enterococcus avium (GC 4558): 16 mg/L (≈ 11.2 µM)
  MIC Enterococcus faecalis (ATCC 29212): 32 mg/L (≈ 22.3 µM)
  MIC Enterococcus faecalis (GC 2242): 16 mg/L (≈ 11.2 µM)
  MIC Enterococcus faecalis (GC 2691): 32 mg/L (≈ 22.3 µM)
  MIC Enterococcus faecalis (GC 3059): 16 mg/L (≈ 11.2 µM)
  MIC Enterococcus faecalis (GC 4552): 16 mg/L (≈ 11.2 µM)
  MIC Enterococcus faecalis (GC 4553): 16 mg/L (≈ 11.2 µM)
  MIC Enterococcus faecalis (GC 4554): 32 mg/L (≈ 22.3 µM)
  MIC Enterococcus faecalis (GC 6189): 32 mg/L (≈ 22.3 µM)
  MIC Enterococcus faecium (GC 2243): 16 mg/L (≈ 11.2 µM)
  MIC Enterococcus faecium (GC 4556): 16 mg/L (≈ 11.2 µM)
  MIC Enterococcus faecium (GC 4557): 4 mg/L (≈ 2.79 µM)
[4]; strain ATCC 29212
  MIC Enterococcus faecalis (ATCC 29212): 32 mg/L (≈ 22.3 µM)
[4]; strain GC 2243
  MIC Enterococcus faecium (GC 2243): 16 mg/L (≈ 11.2 µM)
[4]; strain GC 4552
  MIC Enterococcus faecalis (GC 4552): 16 mg/L (≈ 11.2 µM)
[4]; strain GC 4553
  MIC Enterococcus faecalis (GC 4553): 16 mg/L (≈ 11.2 µM)
[4]; strain GC 4554
  MIC Enterococcus faecalis (GC 4554): 32 mg/L (≈ 22.3 µM)
[4]; strain GC 4556
  MIC Enterococcus faecium (GC 4556): 16 mg/L (≈ 11.2 µM)
[4]; strain GC 4557
  MIC Enterococcus faecium (GC 4557): 4 mg/L (≈ 2.79 µM)
[4]; strain GC 4558
  MIC Enterococcus avium (GC 4558): 16 mg/L (≈ 11.2 µM)
[4]; strain GC 6189
  MIC Enterococcus faecalis (GC 6189): 32 mg/L (≈ 22.3 µM)
[4]; inoculum 5×10^5 CFU/mL, strain GC 2242
  MIC Enterococcus faecalis (GC 2242): 16 mg/L (≈ 11.2 µM)
[4]; inoculum 5×10^5 CFU/mL, strain GC 2691
  MIC Enterococcus faecalis (GC 2691): 32 mg/L (≈ 22.3 µM)
[4]; inoculum 5×10^5 CFU/mL, strain GC 3059
  MIC Enterococcus faecalis (GC 3059): 16 mg/L (≈ 11.2 µM)
[5]
  MIC Streptococcus agalactiae (GC 4564): 4 mg/L (≈ 2.79 µM)
  MIC Streptococcus pneumoniae (ATCC 6301): 2 mg/L (≈ 1.4 µM)
  MIC Streptococcus pneumoniae (GC 1894): 1 mg/L (≈ 0.698 µM)
  MIC Streptococcus pneumoniae (GC 4565): 4 mg/L (≈ 2.79 µM)
  MIC Streptococcus pyogenes (GC 4563): 4 mg/L (≈ 2.79 µM)
[5]; inoculum 5×10^5 CFU/mL, strain ATCC 6301
  MIC Streptococcus pneumoniae (ATCC 6301): 2 mg/L (≈ 1.4 µM)
[5]; inoculum 5×10^5 CFU/mL, strain GC 1894
  MIC Streptococcus pneumoniae (GC 1894): 1 mg/L (≈ 0.698 µM)
[5]; inoculum 5×10^5 CFU/mL, strain GC 4563
  MIC Streptococcus pyogenes (GC 4563): 4 mg/L (≈ 2.79 µM)
[5]; inoculum 5×10^5 CFU/mL, strain GC 4564
  MIC Streptococcus agalactiae (GC 4564): 4 mg/L (≈ 2.79 µM)
[5]; inoculum 5×10^5 CFU/mL, strain GC 4565
  MIC Streptococcus pneumoniae (GC 4565): 4 mg/L (≈ 2.79 µM)
[6]
  MIC Coagulase Negative Staphylococcus (GC 4547): 4 mg/L (≈ 2.79 µM)
  MIC Coagulase Negative Staphylococcus (GC 4548): 2 mg/L (≈ 1.4 µM)
  MIC Coagulase Negative Staphylococcus (GC 4549): 1 mg/L (≈ 0.698 µM)
  MIC Coagulase Negative Staphylococcus (GC 4551): 8 mg/L (≈ 5.58 µM)
  MIC Coagulase Negative Staphylococcus (GC 6257): 2 mg/L (≈ 1.4 µM)
  MIC Staphylococcus aureus (ATCC 29213): 4 mg/L (≈ 2.79 µM)
  MIC Staphylococcus aureus (GC 1131): 8 mg/L (≈ 5.58 µM)
  MIC Staphylococcus aureus (GC 3051): 4 mg/L (≈ 2.79 µM)
  MIC Staphylococcus aureus (GC 3053): 4 mg/L (≈ 2.79 µM)
  MIC Staphylococcus aureus (GC 4541): 4 mg/L (≈ 2.79 µM)
  MIC Staphylococcus aureus (GC 4542): 4 mg/L (≈ 2.79 µM)
  MIC Staphylococcus aureus (GC 4544): 8 mg/L (≈ 5.58 µM)
  MIC Staphylococcus aureus (GC 4545): 4 mg/L (≈ 2.79 µM)
  MIC Staphylococcus aureus-SMITH (GC 4543): 4 mg/L (≈ 2.79 µM)
  MIC Staphylococcus haemolyticus (GC 4546): 4 mg/L (≈ 2.79 µM)
[6]; strain ATCC 29213
  MIC Staphylococcus aureus (ATCC 29213): 4 mg/L (≈ 2.79 µM)
[6]; strain GC 1131
  MIC Staphylococcus aureus (GC 1131): 8 mg/L (≈ 5.58 µM)
[6]; strain GC 3051
  MIC Staphylococcus aureus (GC 3051): 4 mg/L (≈ 2.79 µM)
[6]; strain GC 3053
  MIC Staphylococcus aureus (GC 3053): 4 mg/L (≈ 2.79 µM)
[6]; strain GC 4541
  MIC Staphylococcus aureus (GC 4541): 4 mg/L (≈ 2.79 µM)
[6]; strain GC 4542
  MIC Staphylococcus aureus (GC 4542): 4 mg/L (≈ 2.79 µM)
[6]; strain GC 4543
  MIC Staphylococcus aureus-SMITH (GC 4543): 4 mg/L (≈ 2.79 µM)
[6]; strain GC 4544
  MIC Staphylococcus aureus (GC 4544): 8 mg/L (≈ 5.58 µM)
[6]; strain GC 4545
  MIC Staphylococcus aureus (GC 4545): 4 mg/L (≈ 2.79 µM)
[6]; strain GC 4546
  MIC Staphylococcus haemolyticus (GC 4546): 4 mg/L (≈ 2.79 µM)
[6]; strain GC 4547
  MIC Coagulase Negative Staphylococcus (GC 4547): 4 mg/L (≈ 2.79 µM)
[6]; strain GC 4548
  MIC Coagulase Negative Staphylococcus (GC 4548): 2 mg/L (≈ 1.4 µM)
[6]; strain GC 4549
  MIC Coagulase Negative Staphylococcus (GC 4549): 1 mg/L (≈ 0.698 µM)
[6]; strain GC 4551
  MIC Coagulase Negative Staphylococcus (GC 4551): 8 mg/L (≈ 5.58 µM)
[6]; strain GC 6257
  MIC Coagulase Negative Staphylococcus (GC 6257): 2 mg/L (≈ 1.4 µM)
[7]
  Anatomical Pathology (Day 10), Heart: 0
  Anatomical Pathology (Day 10), Kidney: +++

From patent US6914045B2, “Glycopeptide antibiotics” (Wyeth Holdings Corporation, priority 2001, dated 2005)
